Assay results: ChEMBL document CHEMBL4665643 (Bioorg Med Chem Lett, 2019)

How the values were obtained:
[1] = Lipophilicity, logD of compound; type: physicochemical; details: octanol/water
[2] = biological target: Tyrosine-protein kinase JAK1 (Homo sapiens, UniProt P23458); details: dose 0.1 µM, time 60.0 min
[3] = biological target: Tyrosine-protein kinase ABL1 (Homo sapiens) (UniProt P00519); experiment: Inhibition of recombinant human His-tagged full length Abl expressed in baculovirus expression system using Tyr 02 as substrate at 0.1 uM incubated for 60 mins by Z'-Lyte assay relative to control
[4] = tested on: RAF proto-oncogene serine/threonine-protein kinase (Homo sapiens), P04049 [Y340D,Y341D]; experiment: Inhibition of recombinant human GST-tagged RAF1 Y340D/Y341D double mutant (306 to 648 residues) expressed in baculovirus expression system using Ser/Thr 03 as substrate at 0.1 uM incubated for 60 mins by Z'-Lyte assay relative to control
[5] = biological target: Mitogen-activated protein kinase 11 (Homo sapiens) (UniProt Q15759); experiment: Inhibition of recombinant human His-tagged full length p38 beta expressed in baculovirus expression system using Ser/Thr 15 as substrate at 0.1 uM incubated for 60 mins by Z'-Lyte assay relative to control
[6] = biological target: Insulin receptor (Homo sapiens) (UniProt P06213); experiment: Inhibition of recombinant human GST-tagged InsR (1011 to 1382 residues) expressed in baculovirus expression system using Tyr 01 as substrate at 0.1 uM incubated for 60 mins by Z'-lyte assay relative to control
[7] = biological target: T1, Mitogen-activated protein kinase kinase kinase 5 (Homo sapiens) (UniProt Q99683); experiment: Inhibition of tracer 236 binding to recombinant human GST-tagged full length ASK1 expressed in baculovirus expression system at 0.1 uM incubated for 60 mins by Lanthascreen assay relative to control
T1 sequence (whole entry): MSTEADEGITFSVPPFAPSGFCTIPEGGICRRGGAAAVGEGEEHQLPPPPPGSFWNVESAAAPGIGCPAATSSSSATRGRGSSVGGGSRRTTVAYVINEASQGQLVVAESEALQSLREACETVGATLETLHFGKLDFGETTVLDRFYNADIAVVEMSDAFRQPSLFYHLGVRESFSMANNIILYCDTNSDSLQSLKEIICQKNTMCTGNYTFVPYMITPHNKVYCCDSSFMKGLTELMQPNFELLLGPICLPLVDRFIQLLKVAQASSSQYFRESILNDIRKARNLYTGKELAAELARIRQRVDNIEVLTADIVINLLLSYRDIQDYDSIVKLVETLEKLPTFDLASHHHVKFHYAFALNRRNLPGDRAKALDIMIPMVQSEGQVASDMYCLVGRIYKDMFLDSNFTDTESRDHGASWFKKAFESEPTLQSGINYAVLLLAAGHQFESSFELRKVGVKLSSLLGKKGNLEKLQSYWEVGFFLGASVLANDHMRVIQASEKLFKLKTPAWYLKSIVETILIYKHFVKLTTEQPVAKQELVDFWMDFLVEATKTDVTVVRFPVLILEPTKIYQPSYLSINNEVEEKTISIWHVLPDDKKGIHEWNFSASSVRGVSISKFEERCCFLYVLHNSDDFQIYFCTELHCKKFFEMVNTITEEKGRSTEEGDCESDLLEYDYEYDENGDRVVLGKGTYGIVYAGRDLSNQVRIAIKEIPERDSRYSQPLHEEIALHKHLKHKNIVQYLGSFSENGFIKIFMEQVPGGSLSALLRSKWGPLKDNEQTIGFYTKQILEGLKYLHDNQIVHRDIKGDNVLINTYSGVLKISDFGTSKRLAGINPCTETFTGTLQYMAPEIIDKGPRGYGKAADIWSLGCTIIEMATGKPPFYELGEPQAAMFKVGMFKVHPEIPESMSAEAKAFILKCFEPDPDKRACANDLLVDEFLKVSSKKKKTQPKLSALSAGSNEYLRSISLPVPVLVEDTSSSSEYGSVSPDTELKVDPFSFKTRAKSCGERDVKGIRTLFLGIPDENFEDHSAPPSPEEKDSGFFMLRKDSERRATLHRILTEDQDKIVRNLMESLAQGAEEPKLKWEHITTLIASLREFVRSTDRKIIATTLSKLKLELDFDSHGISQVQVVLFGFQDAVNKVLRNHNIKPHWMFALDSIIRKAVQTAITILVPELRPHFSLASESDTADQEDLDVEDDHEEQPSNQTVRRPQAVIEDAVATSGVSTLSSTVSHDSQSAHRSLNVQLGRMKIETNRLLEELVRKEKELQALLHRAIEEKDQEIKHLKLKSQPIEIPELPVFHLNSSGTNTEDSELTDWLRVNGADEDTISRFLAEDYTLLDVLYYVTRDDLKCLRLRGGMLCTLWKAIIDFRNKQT

[8] = biological target: Epidermal growth factor receptor (Homo sapiens) (UniProt P00533); experiment: Inhibition of recombinant human GST-tagged EGFR (668 to 1210 residues) expressed in baculovirus expression system using Tyr 4 as substrate at 0.1 uM incubated for 60 mins by Z'-Lyte assay relative to control
[9] = biological target: Ephrin type-A receptor 4 (Homo sapiens) (UniProt P54764); experiment: Inhibition of recombinant human GST-tagged EPHA4 (616 to 887 residues) expressed in baculovirus expression system using Tyr 02 as substrate at 0.1 uM incubated for 60 mins by Z'-Lyte assay relative to control
Janus Kinase (JAK) = Janus Kinase (JAK) (Homo sapiens, UniProt P52333+P23458+O60674+P29597); details: beas-2b
Description: Inhibition of JAK in human BEAS-2B cells assessed as reduction in IL13-induced STAT6 phosphorylation incubated for 1 hr followed by IL13 addition and measured after 15 mins by immunofluorescence assay

in vitro = details: dog, MDCK
Description: Apparent permeability across apical to basolateral side in MDCK cells at 10 uM incubated upto 180 mins by LC/MS-MS analysis

Chain of Tyrosine-protein kinase JAK1 (P23458 whole entry): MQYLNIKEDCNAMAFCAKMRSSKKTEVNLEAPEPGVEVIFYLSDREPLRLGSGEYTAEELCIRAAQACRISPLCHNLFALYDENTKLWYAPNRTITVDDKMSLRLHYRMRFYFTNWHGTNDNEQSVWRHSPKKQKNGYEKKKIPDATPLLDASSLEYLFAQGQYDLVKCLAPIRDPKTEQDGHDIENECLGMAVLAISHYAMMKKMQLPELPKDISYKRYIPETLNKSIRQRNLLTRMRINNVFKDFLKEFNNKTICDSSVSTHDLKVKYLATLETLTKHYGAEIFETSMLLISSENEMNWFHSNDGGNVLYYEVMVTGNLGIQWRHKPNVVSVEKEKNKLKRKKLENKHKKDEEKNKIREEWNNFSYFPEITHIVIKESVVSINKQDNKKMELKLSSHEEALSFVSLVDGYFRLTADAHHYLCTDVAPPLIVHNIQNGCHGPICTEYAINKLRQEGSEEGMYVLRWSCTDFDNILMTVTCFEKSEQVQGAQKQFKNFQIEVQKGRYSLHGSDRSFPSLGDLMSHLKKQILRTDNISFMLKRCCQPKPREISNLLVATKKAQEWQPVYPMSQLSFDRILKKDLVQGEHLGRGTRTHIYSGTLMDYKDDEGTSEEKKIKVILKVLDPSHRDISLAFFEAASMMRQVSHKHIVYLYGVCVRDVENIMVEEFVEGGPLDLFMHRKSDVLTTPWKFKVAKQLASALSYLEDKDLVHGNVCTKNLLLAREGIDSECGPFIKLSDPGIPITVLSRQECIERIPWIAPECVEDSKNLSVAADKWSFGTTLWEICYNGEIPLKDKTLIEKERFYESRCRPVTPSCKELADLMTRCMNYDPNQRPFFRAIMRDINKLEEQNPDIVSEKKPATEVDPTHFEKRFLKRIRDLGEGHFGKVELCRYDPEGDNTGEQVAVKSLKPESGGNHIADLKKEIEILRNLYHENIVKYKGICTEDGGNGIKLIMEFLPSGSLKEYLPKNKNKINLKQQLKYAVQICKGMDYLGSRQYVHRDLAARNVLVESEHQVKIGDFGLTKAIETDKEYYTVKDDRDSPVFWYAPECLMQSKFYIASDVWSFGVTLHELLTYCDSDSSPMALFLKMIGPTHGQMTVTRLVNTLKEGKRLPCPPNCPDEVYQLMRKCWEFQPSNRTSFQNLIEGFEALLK
Chain of Mitogen-activated protein kinase 11 (Homo sapiens) (Q15759 whole entry, the tested form may be a part): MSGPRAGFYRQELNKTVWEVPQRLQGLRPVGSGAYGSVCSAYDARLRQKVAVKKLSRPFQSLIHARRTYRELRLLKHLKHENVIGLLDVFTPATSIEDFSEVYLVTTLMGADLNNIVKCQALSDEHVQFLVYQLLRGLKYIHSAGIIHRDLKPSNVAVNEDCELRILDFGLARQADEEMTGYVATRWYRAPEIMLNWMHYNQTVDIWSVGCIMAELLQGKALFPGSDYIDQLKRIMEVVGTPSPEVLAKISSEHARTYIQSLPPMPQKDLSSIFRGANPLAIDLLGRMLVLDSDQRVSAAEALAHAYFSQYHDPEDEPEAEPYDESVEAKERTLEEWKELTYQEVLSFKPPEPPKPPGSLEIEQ
Chain of Ephrin type-A receptor 4 (Homo sapiens) (P54764 whole entry, the tested form may be a part): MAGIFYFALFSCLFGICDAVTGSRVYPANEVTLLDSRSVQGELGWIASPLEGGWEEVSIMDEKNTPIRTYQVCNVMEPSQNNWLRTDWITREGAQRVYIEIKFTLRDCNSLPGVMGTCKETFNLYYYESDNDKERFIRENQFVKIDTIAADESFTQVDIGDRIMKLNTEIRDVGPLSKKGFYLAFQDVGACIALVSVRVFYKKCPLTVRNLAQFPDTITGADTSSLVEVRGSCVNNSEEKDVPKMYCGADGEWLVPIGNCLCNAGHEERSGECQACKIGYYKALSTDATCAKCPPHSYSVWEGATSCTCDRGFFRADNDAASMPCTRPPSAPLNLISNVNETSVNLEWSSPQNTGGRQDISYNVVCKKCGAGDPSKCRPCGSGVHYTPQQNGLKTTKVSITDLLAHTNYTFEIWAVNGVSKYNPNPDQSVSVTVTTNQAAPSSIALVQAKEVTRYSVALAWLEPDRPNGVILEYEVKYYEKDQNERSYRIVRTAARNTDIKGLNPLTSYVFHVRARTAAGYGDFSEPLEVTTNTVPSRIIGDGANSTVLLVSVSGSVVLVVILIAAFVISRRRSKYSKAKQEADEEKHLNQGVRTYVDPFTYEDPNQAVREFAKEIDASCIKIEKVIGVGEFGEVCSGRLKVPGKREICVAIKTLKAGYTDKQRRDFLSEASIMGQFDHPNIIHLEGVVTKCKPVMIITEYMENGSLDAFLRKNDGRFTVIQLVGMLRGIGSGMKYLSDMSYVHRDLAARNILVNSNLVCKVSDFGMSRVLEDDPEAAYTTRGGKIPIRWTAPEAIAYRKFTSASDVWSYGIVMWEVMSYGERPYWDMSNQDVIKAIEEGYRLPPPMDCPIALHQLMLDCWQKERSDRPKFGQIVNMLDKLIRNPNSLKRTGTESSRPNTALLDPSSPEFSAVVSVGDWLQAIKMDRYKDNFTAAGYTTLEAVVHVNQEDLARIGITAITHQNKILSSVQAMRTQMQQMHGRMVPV
Chain of RAF proto-oncogene serine/threonine-protein kinase (Homo sapiens), P04049 [Y340D,Y341D] (P04049 whole entry Y340D/Y341D, the tested form may be a part): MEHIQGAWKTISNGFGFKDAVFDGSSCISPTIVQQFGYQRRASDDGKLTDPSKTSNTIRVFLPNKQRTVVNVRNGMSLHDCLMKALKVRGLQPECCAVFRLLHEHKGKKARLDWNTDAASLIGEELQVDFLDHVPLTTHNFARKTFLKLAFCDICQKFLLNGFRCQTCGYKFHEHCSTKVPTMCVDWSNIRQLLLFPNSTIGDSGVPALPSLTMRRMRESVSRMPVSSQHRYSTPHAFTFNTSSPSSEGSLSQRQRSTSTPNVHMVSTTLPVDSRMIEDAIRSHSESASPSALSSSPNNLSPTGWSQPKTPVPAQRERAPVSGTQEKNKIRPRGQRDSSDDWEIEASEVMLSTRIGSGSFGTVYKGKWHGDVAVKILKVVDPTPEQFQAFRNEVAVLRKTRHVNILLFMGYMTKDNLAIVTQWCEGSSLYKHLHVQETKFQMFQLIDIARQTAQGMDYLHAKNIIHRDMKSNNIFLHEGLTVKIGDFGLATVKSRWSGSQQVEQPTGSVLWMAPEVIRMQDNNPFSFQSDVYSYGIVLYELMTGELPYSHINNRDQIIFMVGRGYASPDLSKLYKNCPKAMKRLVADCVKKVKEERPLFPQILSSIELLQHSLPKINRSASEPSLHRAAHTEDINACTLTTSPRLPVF
Chain of Epidermal growth factor receptor (Homo sapiens) (P00533 whole entry, the tested form may be a part): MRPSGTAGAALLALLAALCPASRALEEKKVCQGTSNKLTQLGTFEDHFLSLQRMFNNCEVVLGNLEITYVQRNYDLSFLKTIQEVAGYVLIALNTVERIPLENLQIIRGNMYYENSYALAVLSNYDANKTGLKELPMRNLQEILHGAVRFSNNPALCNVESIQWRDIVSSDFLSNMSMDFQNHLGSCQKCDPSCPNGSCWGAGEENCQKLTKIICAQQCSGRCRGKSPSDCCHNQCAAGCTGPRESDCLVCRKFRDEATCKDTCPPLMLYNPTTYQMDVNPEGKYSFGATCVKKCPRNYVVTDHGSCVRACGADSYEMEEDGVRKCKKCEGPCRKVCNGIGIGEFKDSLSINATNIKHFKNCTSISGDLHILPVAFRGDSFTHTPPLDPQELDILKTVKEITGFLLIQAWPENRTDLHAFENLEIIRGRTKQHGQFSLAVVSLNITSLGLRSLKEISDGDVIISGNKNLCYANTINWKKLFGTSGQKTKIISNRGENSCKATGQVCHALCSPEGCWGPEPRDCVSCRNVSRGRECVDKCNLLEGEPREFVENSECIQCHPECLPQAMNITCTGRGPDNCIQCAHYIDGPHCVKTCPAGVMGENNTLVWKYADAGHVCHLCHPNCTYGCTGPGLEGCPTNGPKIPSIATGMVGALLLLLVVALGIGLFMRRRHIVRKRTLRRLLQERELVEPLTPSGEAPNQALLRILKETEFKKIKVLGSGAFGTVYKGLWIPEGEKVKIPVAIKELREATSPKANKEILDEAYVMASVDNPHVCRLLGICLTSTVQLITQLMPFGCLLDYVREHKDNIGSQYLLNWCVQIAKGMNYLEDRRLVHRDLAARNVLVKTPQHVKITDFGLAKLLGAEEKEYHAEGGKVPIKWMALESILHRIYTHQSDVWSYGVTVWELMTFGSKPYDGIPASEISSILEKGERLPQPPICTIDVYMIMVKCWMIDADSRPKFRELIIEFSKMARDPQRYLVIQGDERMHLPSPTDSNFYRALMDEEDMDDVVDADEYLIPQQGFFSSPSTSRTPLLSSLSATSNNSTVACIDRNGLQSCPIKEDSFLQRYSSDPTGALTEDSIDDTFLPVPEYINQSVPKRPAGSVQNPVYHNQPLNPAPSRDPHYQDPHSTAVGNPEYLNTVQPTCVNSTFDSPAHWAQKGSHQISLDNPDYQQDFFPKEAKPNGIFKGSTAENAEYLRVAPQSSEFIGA

For `Cn1cc(NC(=O)c2cnn3cccnc23)c(-c2cc(Cl)ccc2OC(F)F)n1`, the logD [1] was 3, the inhibition [2] was 96% and the inhibition [3] was 10%. For the same compound, the inhibition [4] was 3%, the inhibition [5] was 11% and the inhibition [6] was 4%. The inhibition [7] was 2%, the inhibition [8] was 2% and the inhibition [9] was 4%. It also gave an IC50 (Janus Kinase (JAK)) of 4.7 nM and a Papp A→B at 3 h, 10 µM (in vitro) of 14 ×10⁻⁶ cm/s.
Compound `O=C(Nc1c[nH]nc1-c1cc2ccccc2cc1OC(F)F)c1cnn2cccnc12` has a logD [1] of 3.5, an inhibition [2] of 96% and an inhibition [3] of 11%. The inhibition [4] was 7%, the inhibition [5] was 5% and the inhibition [6] was -8%. For the same compound, the inhibition [7] was -2%, the inhibition [8] was 6% and the inhibition [9] was 3%. The IC50 (Janus Kinase (JAK)) was 6.4 nM and the Papp A→B at 3 h, 10 µM (in vitro) was 13 ×10⁻⁶ cm/s.
`O=C(Nc1c[nH]nc1-c1cc(Cl)ccc1OC(F)F)c1cnn2cccnc12` showed a logD [1] of 3.2, an inhibition [2] of 100% and an inhibition [3] of 32%. For the same compound, the inhibition [4] was 9%, the inhibition [5] was 9% and the inhibition [6] was 6%. For the same compound, the inhibition [7] was 4%, the inhibition [8] was 0% and the inhibition [9] was -4%. For the same compound, the IC50 (Janus Kinase (JAK)) was 5.2 nM and the Papp A→B at 3 h, 10 µM (in vitro) was 14 ×10⁻⁶ cm/s.
